Results: US20230248665A1, “COMPOSITION COMPRISING DIMETHYLCHALCONE DERIVATIVE FOR PREVENTION OR TREATMENT OF METABOLIC DISEASE” (SEOUL NATIONAL UNIVERSITY R & DB FOUNDATION, priority 2020, published 2023)

What was measured:
Assay type in all cases: cell-based
[1] = tested on: AMPK; test: AMPK activity, western blotting of phosphorylated AMPK in C2C12 myotubes; conditions: FIG. 2
Text: AMP-activated protein kinase (AMPK) is a member of serine/threonine kinases, and is an enzyme known as an energy sensor which senses the intracellular energy state. Moreover, the activation of AMPK is known to show the effect of increasing glucose transport and promoting fatty acid oxidation in skeletal muscle, and to […] the synthesis of cholesterol and triglycerides, decrease lipogenesis, and increase fatty acid oxidation, and ketogenesis, and the like in the liver. Further, the activation of AMPK is known to reduce adipogenesis in adipose tissue and increase insulin secretion in pancreatic beta cells, thereby being able to be applied to the treatment of various metabolic diseases. Therefore, western blotting was performed in order to confirm the effect of the DMC derivatives of Example 1 on AMPK activity. More specifically, the C2C12 myoblasts were primarily cultured in DMEM supplemented with 10% fetal bovine serum, and then cultured in DMEM supplemented with 2% horse serum for 5 days to differentiate into myotubes. Then, the differentiated myotubes were treated with 10 µM DMC derivative and cultured for 24 hours, and then cells were collected, and disrupted using an ultrasonic disperser to obtain proteins. Next, western blotting was performed using a pAMPK antibody (Cell Signaling Technology) and an AMPK antibody (Cell Signaling Technology) to measure the amount of phosphorylated AMPK. 1 mM AICAR was used as a positive control, and 20 µg of protein was used for each sample in western blotting.

[2] = tested on: human kidney proximal tubule epithelial cell (HK-2) cell line; test: Antioxidant effect, intracellular reactive oxygen species (DCF-DA) in HK-2 kidney cells after H2O2; conditions: 1 µM for 18 hours, then 500 µM H2O2 for 6 hours, FIG. 6
Procedure: First, the antioxidant effect was checked using kidney cells. More specifically, a human kidney proximal tubule epithelial cell (HK-2) cell line was treated with 1 µM DMC derivative and cultured for 18 hours. Then, 500 µM H2O2 was added to the culture medium and the culture medium was incubated for 6 hours. Thereafter, the amount of intracellular reactive oxygen species (iROS) was measured using dichlorohydro-fluorescein diacetate (DCF-DA).

[3] = tested on: rat aortic smooth muscle cells; test: PDGF-induced migration of vascular smooth muscle cells; conditions: 1 µM with 10 ng/mL PDGF; FIG. 4
Procedure: Proliferation and migration of vascular smooth muscle cells are known to be essential steps in the progression of vascular diseases such as restenosis and arteriosclerosis. Therefore, in order to confirm the effect of the DMC derivatives of Example 1 on the migration of rat aortic smooth muscle cells, smooth muscle cells were treated with 10 ng/mL platelet-derived growth factor (PDGF) and 1 µM DMC derivative and cultured. Then, the degree of cell migration was measured.

| Compound | activity of AMPK (phosphorylated AMPK) ([1]; positive control 1 mM AICAR) | amount of intracellular reactive oxygen species (ROS) [2] | migration of vascular smooth muscle cells [3] | activity of AMPK (phosphorylated AMPK) ([1]; 10 µM, 24 hours) |
| --- | --- | --- | --- | --- |
| NC(=O)c1ncn([C@@H]2O[C@H](CO)[C@@H](O)[C@H]2O)c1N [AICAR, reference compound] | increased the activity of AMPK | – | – | – |
| COc1c(C)c(O)c(C)c(O)c1C(=O)/C=C/c1ccc(C(C)C)cc1 [Chemical Formula 4, 1-(2′,4′-dihydroxy-6′-methoxy-3′,5′-dimethylphenyl)-3-(4-isopropylphenyl)-2-propen-1-one] | – | effectively reduced ROS | similarly or more effectively suppressed cell migration by PDGF than AICAR and Rosi, which were used as positive controls, and DMC | – |
| COc1ccc(/C=C/C(=O)c2c(O)c(C)c(O)c(C)c2OC)cc1 [Chemical Formula 5, 1-(2′,4′-dihydroxy-6′-methoxy-3′,5′-dimethylphenyl)-3-(4-methoxyphenyl)-2-propen-1-one] | – | – | – | increased the activity of AMPK similarly to or more effectively than the positive controls |
| COc1c(C)c(OC)c(C(=O)/C=C/c2ccc(F)cc2)c(OC)c1C [Chemical Formula 16, 1-(3′,5′-dimethyl-2′,4′,6′-trimethoxyphenyl)-3-(4-fluorophenyl)-2-propen-1-one] | – | effectively reduced ROS | similarly or more effectively suppressed cell migration by PDGF than AICAR and Rosi, which were used as positive controls, and DMC | – |
| COc1c(C)c(OC)c(C(=O)/C=C/c2ccccc2)c(OC)c1C [Chemical Formula 17, 1-(3′,5′-dimethyl-2′,4′,6′-trimethoxyphenyl)-3-phenyl-2-propen-1-one] | – | effectively reduced ROS | similarly or more effectively suppressed cell migration by PDGF than AICAR and Rosi, which were used as positive controls, and DMC | – |
| COc1c(C)c(OC)c(C(=O)/C=C/c2ccc(C)cc2)c(OC)c1C [Chemical Formula 18, 1-(3′,5′-dimethyl-2′,4′,6′-trimethoxyphenyl)-3-(4-tolyl)-2-propen-1-one] | – | – | similarly or more effectively suppressed cell migration by PDGF than AICAR and Rosi, which were used as positive controls, and DMC | – |
| COc1c(C)c(OC)c(C(=O)/C=C/c2ccc(C(C)C)cc2)c(OC)c1C [Chemical Formula 19, 1-(3′,5′-dimethyl-2′,4′,6′-trimethoxyphenyl)-3-(4-isopropylphenyl)-2-propen-1-one] | – | – | similarly or more effectively suppressed cell migration by PDGF than AICAR and Rosi, which were used as positive controls, and DMC | increased the activity of AMPK similarly to or more effectively than the positive controls |
| COc1ccc(/C=C/C(=O)c2c(OC)c(C)c(OC)c(C)c2OC)cc1 [Chemical Formula 21, 1-(3′,5′-dimethyl-2′,4′,6′-trimethoxyphenyl)-3-(4-methoxyphenyl)-2-propen-1-one] | – | – | similarly or more effectively suppressed cell migration by PDGF than AICAR and Rosi, which were used as positive controls, and DMC | increased the activity of AMPK similarly to or more effectively than the positive controls |
| COc1c(C)c(OC)c(C(=O)/C=C/c2ccc(O)cc2)c(OC)c1C [Chemical Formula 22, 1-(3′,5′-dimethyl-2′,4′,6′-trimethoxyphenyl)-3-(4-hydroxyphenyl)-2-propen-1-one] | – | – | similarly or more effectively suppressed cell migration by PDGF than AICAR and Rosi, which were used as positive controls, and DMC | increased the activity of AMPK similarly to or more effectively than the positive controls |
| COCOc1c(C)c(O)c(C(=O)/C=C/c2ccc(C)cc2)c(OC)c1C [Chemical Formula 26, 1-(2′-hydroxy-4′-(methoxymethoxy)-6′-methoxy-3′,5′-dimethylphenyl)-3-(4-tolyl)-2-propen-1-one] | – | – | similarly or more effectively suppressed cell migration by PDGF than AICAR and Rosi, which were used as positive controls, and DMC | increased the activity of AMPK similarly to or more effectively than the positive controls |
| COCOc1c(C)c(O)c(C(=O)/C=C/c2ccc(C(C)C)cc2)c(OC)c1C [Chemical Formula 27, 1-(2′-hydroxy-4′-(methoxymethoxy)-6′-methoxy-3′,5′-dimethylphenyl)-3-(4-isopropylphenyl)-2-propen-1-one] | – | – | similarly or more effectively suppressed cell migration by PDGF than AICAR and Rosi, which were used as positive controls, and DMC | increased the activity of AMPK similarly to or more effectively than the positive controls |
| COCOc1ccc(/C=C/C(=O)c2c(O)c(C)c(OCOC)c(C)c2OC)cc1 [Chemical Formula 28, 1-(2′-hydroxy-4′-(methoxymethoxy)-6′-methoxy-3′,5′-dimethylphenyl)-3-(4-methoxymethoxyphenyl)-2-propen-1-one] | – | – | similarly or more effectively suppressed cell migration by PDGF than AICAR and Rosi, which were used as positive controls, and DMC | increased the activity of AMPK similarly to or more effectively than the positive controls |
| COCOc1c(C)c(O)c(C(=O)/C=C/c2ccc(OC)cc2)c(OC)c1C [Chemical Formula 29, 1-(2′-hydroxy-4′-(methoxymethoxy)-6′-methoxy-3′,5′-dimethylphenyl)-3-(4-methoxyphenyl)-2-propen-1-one] | – | – | similarly or more effectively suppressed cell migration by PDGF than AICAR and Rosi, which were used as positive controls, and DMC | increased the activity of AMPK similarly to or more effectively than the positive controls |
| COc1c(C)c(O)c(C)c(O)c1C(=O)/C=C/c1cccc(F)c1 [Chemical Formula 32, 1-(2′,4′-dihydroxy-6′-methoxy-3′,5′-dimethylphenyl)-3-(3-fluorophenyl)-2-propen-1-one] | – | – | – | increased the activity of AMPK similarly to or more effectively than the positive controls |
| COCOc1c(C)c(O)c(C(=O)/C=C/c2ccccc2F)c(OC)c1C [Chemical Formula 34, 1-(2′-hydroxy-4′-(methoxymethoxy)-6′-methoxy-3′,5′-dimethylphenyl)-3-(2-fluorophenyl)-2-propen-1-one] | – | – | similarly or more effectively suppressed cell migration by PDGF than AICAR and Rosi, which were used as positive controls, and DMC | – |
| COc1c(C)c(O)c(C)c(O)c1C(=O)/C=C/c1ccccc1Cl [Chemical Formula 37, 1-(2′,4′-dihydroxy-6′-methoxy-3′,5′-dimethylphenyl)-3-(2-chlorophenyl)-2-propen-1-one] | – | – | similarly or more effectively suppressed cell migration by PDGF than AICAR and Rosi, which were used as positive controls, and DMC | increased the activity of AMPK similarly to or more effectively than the positive controls |
| COc1c(C)c(O)c(C)c(O)c1C(=O)/C=C/c1ccccc1 [DMC, 2′,4′-dihydroxy-6′-methoxy-3′,5′-dimethylchalcone, reference compound] | – | – | – | increased the activity of AMPK |
